Among the data in PubChem BioAssay AID276 (DTP/NCI, 2004) are T/C values, retold here.

The test relates to B6C3F1 mice, Lewis lung carcinoma iv, survival T/C. The test can be described thus: NCI In Vivo Anticancer Drug Screen. Data for tumor model Lewis Lung Carcinoma (intravenous) in B6C3F1 mice. The note with it: endpoint: median survival time, higher = longer survival. The gist of the method: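 Tumors were transplanted into mice, which were then dosed with compound or vehicle. Survival was recorded in each group, and the treated figure was divided by the control figure.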

Where [1] appears, read: dose: 12.5 mg/kg/injection, schedule: Q01DX009 (ip), vehicle: saline with Tween-80.
Setting [2] is: dose: 25.0 mg/kg/injection, schedule: Q01DX009 (ip), vehicle: saline with Tween-80.
Setting [3] is: dose: 50.0 mg/kg/injection, schedule: Q01DX009 (ip), vehicle: saline with Tween-80.
Where [4] appears, read: dose: 100.0 mg/kg/injection, schedule: Q01DX009 (ip), vehicle: saline with Tween-80.
Setting [5] is: dose: 200.0 mg/kg/injection, schedule: Q01DX009 (ip), vehicle: saline with Tween-80.
Where [6] appears, read: dose: 400.0 mg/kg/injection, schedule: Q01DX009 (ip), vehicle: saline with Tween-80.
Setting [7] is: dose: 1.0 mg/kg/injection, schedule: Q01DX009 (ip), vehicle: saline.
[8] abbreviates: dose: 2.0 mg/kg/injection, schedule: Q01DX009 (ip), vehicle: saline.

Where “and” joins values, the source holds several entries; their conditions need not be identical. Equal values may be shown once. Inconclusive results and toxic doses are left out.

Consider `Cc1cc(=NO)cc(C)n1O`, for which the T/C is 105 % of control (dose: 25.0 mg/kg/injection, schedule: Q01DX009 (ip), vehicle: distilled water + alcohol); 95 % of control and 102 % of control (dose: 50.0 mg/kg/injection, schedule: Q01DX009 (ip), vehicle: distilled water + alcohol); 96 % of control and 102 % of control (dose: 100.0 mg/kg/injection, schedule: Q01DX009 (ip), vehicle: distilled water + alcohol); 97 % of control and 104 % of control (dose: 200.0 mg/kg/injection, schedule: Q01DX009 (ip), vehicle: distilled water + alcohol); 97 % of control and 102 % of control (dose: 400.0 mg/kg/injection, schedule: Q01DX009 (ip), vehicle: distilled water + alcohol).
In the case of `C[CH2][Pb]([CH2]C)([CH2]C)[O]C(=O)COc1ccccc1`, the T/C by setting is: (dose: 0.08 mg/kg/injection, schedule: Q01DX009 (ip), vehicle: saline with Tween-80) 107 % of control; (dose: 0.15 mg/kg/injection, schedule: Q01DX009 (ip), vehicle: saline with Tween-80) 99 % of control; (dose: 0.3 mg/kg/injection, schedule: Q01DX009 (ip), vehicle: saline with Tween-80) 99 % of control; (dose: 0.6 mg/kg/injection, schedule: Q01DX009 (ip), vehicle: saline with Tween-80) 109 % of control; (dose: 1.2 mg/kg/injection, schedule: Q01DX009 (ip), vehicle: saline with Tween-80) 108 % of control.
In the case of `COC(=O)[C@@]12OC[C@]34[C@H]([C@@H](O)[C@@H]1O)[C@@]1(C)CC(=O)C(O)=C(C)[C@@H]1C[C@H]3OC(=O)[C@H](OC(=O)/C=C(\C)C(C)C)[C@@H]24`, the T/C (dose: 0.25 mg/kg/injection, schedule: Q01DX009 (ip), vehicle: saline + alcohol) was 102 % of control; the T/C (dose: 0.5 mg/kg/injection, schedule: Q01DX009 (ip), vehicle: saline + alcohol) was 104 % of control; the T/C (dose: 1.0 mg/kg/injection, schedule: Q01DX009 (ip), vehicle: saline + alcohol) was 107 % of control.
For `CN(CCN(C)C(=O)CCOS(C)(=O)=O)C(=O)CCOS(C)(=O)=O`, the T/C is, setting by setting: (dose: 12.5 mg/kg/injection, schedule: Q01DX009 (ip), vehicle: suspension in saline) 101 % of control; (dose: 25.0 mg/kg/injection, schedule: Q01DX009 (ip), vehicle: suspension in saline) 97 % of control; (dose: 50.0 mg/kg/injection, schedule: Q01DX009 (ip), vehicle: suspension in saline) 102 % of control; (dose: 100.0 mg/kg/injection, schedule: Q01DX009 (ip), vehicle: suspension in saline) 107 % of control.
For the compound `CCCC(=O)OCC1OC(n2cnc3c(=S)nc[nH]c32)C(OC(=O)CCC)C1OC(=O)CCC` (centres undefined), the T/C runs as follows: under setting [1], 99 % of control; under setting [2], 99 % of control; under setting [3], 94 % of control.
Turning to `COC(=O)[C@@H]1c2cc3c(c(O)c2[C@@H](OC)C[C@@]1(C)O)C(=O)c1c(O)cc2c(c1C3=O)OC1O[C@@]2(C)[C@H](O)[C@@H](N(C)C)[C@@H]1O`, the T/C was 99 % of control (dose: 1.56 mg/kg/injection, schedule: Q01DX009 (ip), vehicle: saline); 112 % of control (dose: 3.13 mg/kg/injection, schedule: Q01DX009 (ip), vehicle: saline); 101 % of control (dose: 6.25 mg/kg/injection, schedule: Q01DX009 (ip), vehicle: saline); 97 % of control (dose: 12.5 mg/kg/injection, schedule: Q01DX009 (ip), vehicle: saline).
`BrC[P+](CBr)(CBr)CBr`: the T/C is 93 % of control under setting [1]; 102 % of control under setting [2]; 97 % of control under setting [3]; 97 % of control under setting [4]; 89 % of control under setting [5]; 95 % of control under setting [6].
Turning to `CCCCCCCCCCCCCCC/C([O-])=N/[N+](C)(C)CC(C)O` (centres undefined), the T/C by setting is: (dose: 25.0 mg/kg/injection, schedule: Q01DX001 (ip), vehicle: saline) 91 % of control; (dose: 50.0 mg/kg/injection, schedule: Q01DX001 (ip), vehicle: saline) 88 % of control; (dose: 100.0 mg/kg/injection, schedule: Q01DX001 (ip), vehicle: saline) 87 % of control; (dose: 200.0 mg/kg/injection, schedule: Q01DX001 (ip), vehicle: saline) 95 % of control.
For the compound `COc1cc2c(c(OC)c1OC)-c1ccc(OC)c(=O)cc1[C@@H](NC(C)=O)CC2`, the T/C reads like this: (dose: 0.06 mg/kg/injection, schedule: Q01DX009 (ip), vehicle: saline) 108 % of control; (dose: 0.12 mg/kg/injection, schedule: Q01DX009 (ip), vehicle: saline) 92 % of control; (dose: 0.19 mg/kg/injection, schedule: Q01DX009 (ip), vehicle: saline) 99 % of control; (dose: 0.25 mg/kg/injection, schedule: Q01DX009 (ip), vehicle: saline) 100 % of control; (dose: 0.39 mg/kg/injection, schedule: Q01DX009 (ip), vehicle: saline) 104 % of control; (dose: 0.5 mg/kg/injection, schedule: Q01DX009 (ip), vehicle: saline) 93 % of control. For the same compound, the T/C was 104 % of control (dose: 0.78 mg/kg/injection, schedule: Q01DX009 (ip), vehicle: saline); 100 % of control under setting [7]; 112 % of control under setting [8].
In the case of `COc1cc([C@@H]2c3cc4c(cc3[C@@H](OC3OC5COC(C)OC5C(O)C3O)[C@H]3COC(=O)[C@H]23)OCO4)cc(OC)c1O` (some centres undefined), the T/C runs as follows: (dose: 0.5 mg/kg/injection, schedule: Q01DX009 (ip), vehicle: Klucel (hydroxypropylcellulose) (HPC)) 101 % of control; (dose: 1.0 mg/kg/injection, schedule: Q01DX009 (ip), vehicle: Klucel (hydroxypropylcellulose) (HPC)) 102 % of control; (dose: 2.0 mg/kg/injection, schedule: Q01DX009 (ip), vehicle: Klucel (hydroxypropylcellulose) (HPC)) 113 % of control; (dose: 2.0 mg/kg/injection, schedule: Q01DX009 (ip), vehicle: suspension in saline) 113 % of control and 121 % of control; (dose: 4.0 mg/kg/injection, schedule: Q01DX009 (ip), vehicle: Klucel (hydroxypropylcellulose) (HPC)) 124 % of control; (dose: 4.0 mg/kg/injection, schedule: Q01DX009 (ip), vehicle: suspension in saline) 109 % of control. Further, the T/C runs as follows: (dose: 8.0 mg/kg/injection, schedule: Q01DX009 (ip), vehicle: suspension in saline) 151 % of control; (dose: 16.0 mg/kg/injection, schedule: Q01DX009 (ip), vehicle: suspension in saline) 166 % of control and 252 % of control.
For the compound `C=C(C)[C@H]1CN[C@H](C(=O)O)[C@H]1CC(=O)O`, the T/C reads like this: (dose: 0.31 mg/kg/injection, schedule: Q01DX009 (ip), vehicle: saline) 113 % of control; (dose: 0.62 mg/kg/injection, schedule: Q01DX009 (ip), vehicle: saline) 103 % of control; (dose: 1.25 mg/kg/injection, schedule: Q01DX009 (ip), vehicle: saline) 112 % of control; (dose: 2.5 mg/kg/injection, schedule: Q01DX009 (ip), vehicle: saline) 100 % of control; (dose: 5.0 mg/kg/injection, schedule: Q01DX009 (ip), vehicle: saline) 112 % of control; (dose: 10.0 mg/kg/injection, schedule: Q01DX009 (ip), vehicle: saline) 107 % of control.
Turning to `Cc1c(N)nc([C@H](CC(N)=O)NC[C@H](N)C(N)=O)nc1C(=O)N[C@H](C(=O)N[C@H](C)[C@@H](O)[C@H](C)C(=O)N[C@H](C(=O)NCCc1nc(-c2nc(C(=O)NCCC[S+](C)C)cs2)cs1)[C@@H](C)O)C(OC1OC(CO)C(O)C(O)C1OC1OC(CO)C(O)C(OC(N)=O)C1O)c1cnc[nH]1` (some centres undefined), the T/C runs as follows: under setting [7], 113 % of control; under setting [8], 97 % of control and 104 % of control and 112 % of control.
Regarding `C1OCN2CSCC12` (centres undefined), the T/C reads like this: under setting [1], 103 % of control; under setting [2], 103 % of control; under setting [3], 102 % of control; under setting [4], 98 % of control; under setting [5], 96 % of control; under setting [6], 89 % of control.
In the case of `CCCCNC(C)[C@]1(O)Cc2c(O)c3c(c(O)c2[C@@H](OC2CC(N)C(O)C(C)O2)C1)C(=O)c1c(OC)cccc1C3=O` (some centres undefined), the T/C runs as follows: (dose: 0.62 mg/kg/injection, schedule: Q01DX009 (ip), vehicle: water) 107 % of control; (dose: 1.25 mg/kg/injection, schedule: Q01DX009 (ip), vehicle: water) 114 % of control; (dose: 2.5 mg/kg/injection, schedule: Q01DX009 (ip), vehicle: water) 103 % of control; (dose: 5.0 mg/kg/injection, schedule: Q01DX009 (ip), vehicle: water) 115 % of control.
In the case of `O=[N+]([O-])c1ccc(-n2[nH]nnc2=S)cc1`, the T/C reads like this: under setting [1], 101 % of control; under setting [2], 96 % of control; under setting [3], 103 % of control; under setting [4], 95 % of control; under setting [5], 94 % of control.
